Key:
[1] = biological target: RAC-gamma serine/threonine-protein kinase (Homo sapiens) (UniProt Q9Y243); conditions: Compound concentration 1000.0 nM
[2] = biological target: Mitogen-activated protein kinase kinase kinase 5 (Homo sapiens) (UniProt Q99683); conditions: Compound concentration 1000.0 nM
[3] = biological target: Bone morphogenetic protein receptor type-1A (Homo sapiens) (UniProt P36894); conditions: Compound concentration 1000.0 nM
[4] = biological target: Serine/threonine-protein kinase B-raf (Homo sapiens) (UniProt P15056); conditions: Compound concentration 1000.0 nM
[5] = biological target: Cyclin-dependent kinase 19 (Homo sapiens) (UniProt Q9BWU1); conditions: Compound concentration 1000.0 nM
[6] = biological target: Cyclin-dependent kinase 4 (Homo sapiens) (UniProt P11802); conditions: Compound concentration 1000.0 nM
[7] = biological target: Cyclin-dependent kinase 7 (Homo sapiens) (UniProt P50613); conditions: Compound concentration 1000.0 nM
[8] = biological target: Cyclin-dependent kinase 8 (Homo sapiens) (UniProt P49336); conditions: Compound concentration 1000.0 nM
[9] = biological target: Tyrosine-protein kinase CSK (Homo sapiens) (UniProt P41240); conditions: Compound concentration 1000.0 nM
[10] = biological target: Casein kinase I isoform gamma-3 (Homo sapiens) (UniProt Q9Y6M4); conditions: Compound concentration 1000.0 nM
[11] = biological target: Death-associated protein kinase 3 (Homo sapiens) (UniProt O43293); conditions: Compound concentration 1000.0 nM
[12] = tested on: Epidermal growth factor receptor (Homo sapiens), P00533 [G719C]; conditions: Compound concentration 1000.0 nM
[13] = tested on: Epidermal growth factor receptor (Homo sapiens), P00533 [L858R,T790M]; conditions: Compound concentration 1000.0 nM
[14] = biological target: Mitogen-activated protein kinase 6 (Homo sapiens) (UniProt Q16659); conditions: Compound concentration 1000.0 nM
[15] = biological target: Serine/threonine-protein kinase/endoribonuclease IRE1 (Homo sapiens) (UniProt O75460); conditions: Compound concentration 1000.0 nM
[16] = biological target: Tyrosine-protein kinase FRK (Homo sapiens) (UniProt P42685); conditions: Compound concentration 1000.0 nM
[17] = biological target: Glycogen synthase kinase-3 alpha (Homo sapiens) (UniProt P49840); conditions: Compound concentration 1000.0 nM
[18] = biological target: Tyrosine-protein kinase HCK (Homo sapiens) (UniProt P08631); conditions: Compound concentration 1000.0 nM
[19] = biological target: Homeodomain-interacting protein kinase 2 (Homo sapiens) (UniProt Q9H2X6); conditions: Compound concentration 1000.0 nM
[20] = biological target: Mitogen-activated protein kinase kinase kinase kinase 1 (Homo sapiens) (UniProt Q92918); conditions: Compound concentration 1000.0 nM
[21] = biological target: Tyrosine-protein kinase JAK1 (Homo sapiens) (UniProt P23458); conditions: Compound concentration 1000.0 nM
[22] = biological target: Mitogen-activated protein kinase 8 (Homo sapiens) (UniProt P45983); conditions: Compound concentration 1000.0 nM
[23] = biological target: LIM domain kinase 1 (Homo sapiens) (UniProt P53667); conditions: Compound concentration 1000.0 nM
[24] = biological target: Mitogen-activated protein kinase kinase kinase 4 (Homo sapiens) (UniProt Q9Y6R4); conditions: Compound concentration 1000.0 nM
[25] = biological target: Mitogen-activated protein kinase kinase kinase 10 (Homo sapiens) (UniProt Q02779); conditions: Compound concentration 1000.0 nM
[26] = biological target: Serine/threonine-protein kinase 38 (Homo sapiens) (UniProt Q15208); conditions: Compound concentration 1000.0 nM
[27] = biological target: Serine/threonine-protein kinase 38-like (Homo sapiens) (UniProt Q9Y2H1); conditions: Compound concentration 1000.0 nM
[28] = biological target: Cyclin-dependent kinase 18 (Homo sapiens) (UniProt Q07002); conditions: Compound concentration 1000.0 nM
[29] = tested on: Phosphatidylinositol 4,5-bisphosphate 3-kinase catalytic subunit alpha isoform (Homo sapiens), P42336 [C420R]; conditions: Compound concentration 1000.0 nM
[30] = tested on: Phosphatidylinositol 4,5-bisphosphate 3-kinase catalytic subunit alpha isoform (Homo sapiens), P42336 [M1043I]; conditions: Compound concentration 1000.0 nM
[31] = biological target: Phosphatidylinositol 4-phosphate 5-kinase type-1 alpha (Homo sapiens) (UniProt Q99755); conditions: Compound concentration 1000.0 nM
[32] = biological target: Serine/threonine-protein kinase N2 (Homo sapiens) (UniProt Q16513); conditions: Compound concentration 1000.0 nM
[33] = biological target: Serine/threonine-protein kinase PLK2 (Homo sapiens) (UniProt Q9NYY3); conditions: Compound concentration 1000.0 nM
[34] = biological target: Ribosomal protein S6 kinase alpha-2 (Homo sapiens) (UniProt Q15349); conditions: Compound concentration 1000.0 nM
[35] = biological target: Ribosomal protein S6 kinase alpha-6 (Homo sapiens) (UniProt Q9UK32); conditions: Compound concentration 1000.0 nM
[36] = biological target: Serine/threonine-protein kinase 33 (Homo sapiens) (UniProt Q9BYT3); conditions: Compound concentration 1000.0 nM
[37] = biological target: TGF-beta receptor type-2 (Homo sapiens) (UniProt P37173); conditions: Compound concentration 1000.0 nM
[38] = biological target: Serine/threonine-protein kinase ULK2 (Homo sapiens) (UniProt Q8IYT8); conditions: Compound concentration 1000.0 nM
[39] = biological target: T1, D(4) dopamine receptor (Homo sapiens) (UniProt P21917); conditions: Compound concentration 10.0 uM
T1 sequence (whole entry): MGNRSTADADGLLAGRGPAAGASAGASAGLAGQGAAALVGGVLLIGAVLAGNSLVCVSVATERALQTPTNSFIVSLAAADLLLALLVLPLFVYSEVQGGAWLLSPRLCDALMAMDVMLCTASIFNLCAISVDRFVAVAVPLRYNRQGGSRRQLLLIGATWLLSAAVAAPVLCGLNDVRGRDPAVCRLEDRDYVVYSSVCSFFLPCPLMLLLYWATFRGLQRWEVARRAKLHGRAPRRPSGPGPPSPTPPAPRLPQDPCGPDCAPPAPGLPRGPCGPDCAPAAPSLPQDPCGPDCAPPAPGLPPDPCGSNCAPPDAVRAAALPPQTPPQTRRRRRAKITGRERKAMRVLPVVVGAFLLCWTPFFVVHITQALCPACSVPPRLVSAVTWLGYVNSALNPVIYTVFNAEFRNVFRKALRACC

[40] = biological target: Beta-3 adrenergic receptor (Homo sapiens, UniProt P13945); conditions: Compound concentration 10.0 uM

Sequence of Death-associated protein kinase 3 (Homo sapiens) (O43293 whole entry, looked up): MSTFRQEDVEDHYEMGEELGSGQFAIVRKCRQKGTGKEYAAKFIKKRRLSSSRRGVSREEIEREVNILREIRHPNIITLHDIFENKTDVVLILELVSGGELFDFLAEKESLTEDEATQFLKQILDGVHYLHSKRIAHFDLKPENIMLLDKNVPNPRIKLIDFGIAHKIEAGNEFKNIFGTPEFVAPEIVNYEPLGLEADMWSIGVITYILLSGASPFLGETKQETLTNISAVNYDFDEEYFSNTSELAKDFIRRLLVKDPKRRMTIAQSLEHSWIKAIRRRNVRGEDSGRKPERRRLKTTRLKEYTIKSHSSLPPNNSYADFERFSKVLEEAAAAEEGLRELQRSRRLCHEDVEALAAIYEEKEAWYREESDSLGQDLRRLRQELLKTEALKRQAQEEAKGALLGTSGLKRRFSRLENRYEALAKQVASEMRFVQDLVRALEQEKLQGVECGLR
Sequence of Mitogen-activated protein kinase 6 (Homo sapiens) (Q16659 whole entry): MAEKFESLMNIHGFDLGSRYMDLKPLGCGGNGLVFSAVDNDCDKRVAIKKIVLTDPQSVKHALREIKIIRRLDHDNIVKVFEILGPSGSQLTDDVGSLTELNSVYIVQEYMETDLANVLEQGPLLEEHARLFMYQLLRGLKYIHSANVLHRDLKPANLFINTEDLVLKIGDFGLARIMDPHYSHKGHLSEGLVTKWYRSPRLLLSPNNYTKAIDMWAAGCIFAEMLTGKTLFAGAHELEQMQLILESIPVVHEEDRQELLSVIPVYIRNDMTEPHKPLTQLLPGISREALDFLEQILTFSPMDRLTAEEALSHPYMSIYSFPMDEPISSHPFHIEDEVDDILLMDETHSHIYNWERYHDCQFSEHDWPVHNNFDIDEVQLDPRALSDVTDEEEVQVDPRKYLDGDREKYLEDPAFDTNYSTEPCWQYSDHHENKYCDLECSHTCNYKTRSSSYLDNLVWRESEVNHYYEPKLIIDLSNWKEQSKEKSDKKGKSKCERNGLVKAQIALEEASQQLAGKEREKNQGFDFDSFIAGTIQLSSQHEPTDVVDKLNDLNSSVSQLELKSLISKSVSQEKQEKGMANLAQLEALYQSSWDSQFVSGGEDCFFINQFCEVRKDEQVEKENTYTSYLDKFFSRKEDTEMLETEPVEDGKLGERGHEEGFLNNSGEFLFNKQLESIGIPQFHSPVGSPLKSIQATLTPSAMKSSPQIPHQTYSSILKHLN
Sequence of Tyrosine-protein kinase HCK (Homo sapiens) (P08631 2-526 limits assumed): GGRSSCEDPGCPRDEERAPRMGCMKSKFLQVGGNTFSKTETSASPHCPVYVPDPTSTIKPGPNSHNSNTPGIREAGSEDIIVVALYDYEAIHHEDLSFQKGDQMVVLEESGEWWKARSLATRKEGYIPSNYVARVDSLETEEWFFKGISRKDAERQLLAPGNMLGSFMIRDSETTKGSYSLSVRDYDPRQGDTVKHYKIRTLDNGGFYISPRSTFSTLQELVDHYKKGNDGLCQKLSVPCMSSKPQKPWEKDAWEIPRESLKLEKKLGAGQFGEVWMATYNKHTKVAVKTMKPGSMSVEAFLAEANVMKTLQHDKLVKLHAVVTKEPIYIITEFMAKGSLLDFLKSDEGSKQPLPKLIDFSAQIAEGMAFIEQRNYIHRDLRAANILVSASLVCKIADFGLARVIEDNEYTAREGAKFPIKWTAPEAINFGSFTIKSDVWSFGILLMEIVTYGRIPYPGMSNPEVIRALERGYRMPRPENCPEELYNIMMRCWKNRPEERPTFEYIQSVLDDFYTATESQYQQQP
Sequence of Bone morphogenetic protein receptor type-1A (Homo sapiens) (P36894 whole entry): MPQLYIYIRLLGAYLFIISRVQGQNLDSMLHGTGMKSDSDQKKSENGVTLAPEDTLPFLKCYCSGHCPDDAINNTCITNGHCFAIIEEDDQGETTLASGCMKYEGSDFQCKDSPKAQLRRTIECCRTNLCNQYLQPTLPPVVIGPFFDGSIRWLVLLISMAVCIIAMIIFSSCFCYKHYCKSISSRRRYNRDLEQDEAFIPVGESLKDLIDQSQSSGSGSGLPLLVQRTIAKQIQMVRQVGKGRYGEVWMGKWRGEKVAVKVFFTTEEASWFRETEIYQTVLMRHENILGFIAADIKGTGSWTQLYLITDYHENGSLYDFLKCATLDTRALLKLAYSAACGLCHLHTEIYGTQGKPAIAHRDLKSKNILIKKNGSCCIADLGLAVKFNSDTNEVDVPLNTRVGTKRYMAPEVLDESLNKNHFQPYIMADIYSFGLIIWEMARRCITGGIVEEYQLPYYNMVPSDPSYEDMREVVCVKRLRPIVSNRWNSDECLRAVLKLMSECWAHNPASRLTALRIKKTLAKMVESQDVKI
Sequence of Mitogen-activated protein kinase kinase kinase 4 (Homo sapiens) (Q9Y6R4 whole entry): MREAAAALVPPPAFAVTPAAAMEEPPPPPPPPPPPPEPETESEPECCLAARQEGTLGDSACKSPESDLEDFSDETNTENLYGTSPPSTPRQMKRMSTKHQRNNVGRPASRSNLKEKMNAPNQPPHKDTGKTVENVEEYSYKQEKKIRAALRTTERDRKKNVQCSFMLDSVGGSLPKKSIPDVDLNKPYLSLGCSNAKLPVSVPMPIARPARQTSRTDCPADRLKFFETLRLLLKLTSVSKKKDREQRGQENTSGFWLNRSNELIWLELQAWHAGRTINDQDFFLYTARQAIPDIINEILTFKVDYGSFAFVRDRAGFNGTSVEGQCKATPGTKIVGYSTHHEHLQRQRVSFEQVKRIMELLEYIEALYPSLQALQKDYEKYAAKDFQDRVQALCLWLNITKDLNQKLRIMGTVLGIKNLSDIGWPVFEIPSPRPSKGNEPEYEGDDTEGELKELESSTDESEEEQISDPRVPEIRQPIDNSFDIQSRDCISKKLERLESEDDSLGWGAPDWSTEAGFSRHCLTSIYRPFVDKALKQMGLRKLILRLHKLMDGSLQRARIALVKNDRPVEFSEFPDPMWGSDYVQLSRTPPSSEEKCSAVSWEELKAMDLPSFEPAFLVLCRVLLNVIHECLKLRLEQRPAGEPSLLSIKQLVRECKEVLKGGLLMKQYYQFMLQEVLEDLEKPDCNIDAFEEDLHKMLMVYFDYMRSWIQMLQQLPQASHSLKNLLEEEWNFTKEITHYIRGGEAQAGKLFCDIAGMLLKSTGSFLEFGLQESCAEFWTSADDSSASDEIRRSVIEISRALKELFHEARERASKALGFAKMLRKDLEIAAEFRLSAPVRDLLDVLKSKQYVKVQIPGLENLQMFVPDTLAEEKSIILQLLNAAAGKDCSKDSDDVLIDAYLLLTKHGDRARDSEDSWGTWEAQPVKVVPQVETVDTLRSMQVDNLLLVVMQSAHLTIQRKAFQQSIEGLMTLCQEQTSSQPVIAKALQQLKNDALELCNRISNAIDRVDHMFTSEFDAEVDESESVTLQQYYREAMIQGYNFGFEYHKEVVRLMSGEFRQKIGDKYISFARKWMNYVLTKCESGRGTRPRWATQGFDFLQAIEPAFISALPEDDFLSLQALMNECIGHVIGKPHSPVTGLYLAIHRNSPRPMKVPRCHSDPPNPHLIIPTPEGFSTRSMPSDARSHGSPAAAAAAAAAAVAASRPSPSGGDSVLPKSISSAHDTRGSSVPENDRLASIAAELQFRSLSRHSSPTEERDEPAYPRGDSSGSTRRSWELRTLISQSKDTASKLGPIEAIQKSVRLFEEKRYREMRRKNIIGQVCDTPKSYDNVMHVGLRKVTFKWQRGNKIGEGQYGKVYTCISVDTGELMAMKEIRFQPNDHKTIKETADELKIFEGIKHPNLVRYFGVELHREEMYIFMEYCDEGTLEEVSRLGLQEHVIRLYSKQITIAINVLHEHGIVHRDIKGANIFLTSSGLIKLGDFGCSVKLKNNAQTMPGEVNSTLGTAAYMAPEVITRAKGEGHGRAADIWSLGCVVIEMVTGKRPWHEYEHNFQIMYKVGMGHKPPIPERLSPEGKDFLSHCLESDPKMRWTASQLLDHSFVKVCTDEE
Sequence of Serine/threonine-protein kinase ULK2 (Homo sapiens) (Q8IYT8 whole entry): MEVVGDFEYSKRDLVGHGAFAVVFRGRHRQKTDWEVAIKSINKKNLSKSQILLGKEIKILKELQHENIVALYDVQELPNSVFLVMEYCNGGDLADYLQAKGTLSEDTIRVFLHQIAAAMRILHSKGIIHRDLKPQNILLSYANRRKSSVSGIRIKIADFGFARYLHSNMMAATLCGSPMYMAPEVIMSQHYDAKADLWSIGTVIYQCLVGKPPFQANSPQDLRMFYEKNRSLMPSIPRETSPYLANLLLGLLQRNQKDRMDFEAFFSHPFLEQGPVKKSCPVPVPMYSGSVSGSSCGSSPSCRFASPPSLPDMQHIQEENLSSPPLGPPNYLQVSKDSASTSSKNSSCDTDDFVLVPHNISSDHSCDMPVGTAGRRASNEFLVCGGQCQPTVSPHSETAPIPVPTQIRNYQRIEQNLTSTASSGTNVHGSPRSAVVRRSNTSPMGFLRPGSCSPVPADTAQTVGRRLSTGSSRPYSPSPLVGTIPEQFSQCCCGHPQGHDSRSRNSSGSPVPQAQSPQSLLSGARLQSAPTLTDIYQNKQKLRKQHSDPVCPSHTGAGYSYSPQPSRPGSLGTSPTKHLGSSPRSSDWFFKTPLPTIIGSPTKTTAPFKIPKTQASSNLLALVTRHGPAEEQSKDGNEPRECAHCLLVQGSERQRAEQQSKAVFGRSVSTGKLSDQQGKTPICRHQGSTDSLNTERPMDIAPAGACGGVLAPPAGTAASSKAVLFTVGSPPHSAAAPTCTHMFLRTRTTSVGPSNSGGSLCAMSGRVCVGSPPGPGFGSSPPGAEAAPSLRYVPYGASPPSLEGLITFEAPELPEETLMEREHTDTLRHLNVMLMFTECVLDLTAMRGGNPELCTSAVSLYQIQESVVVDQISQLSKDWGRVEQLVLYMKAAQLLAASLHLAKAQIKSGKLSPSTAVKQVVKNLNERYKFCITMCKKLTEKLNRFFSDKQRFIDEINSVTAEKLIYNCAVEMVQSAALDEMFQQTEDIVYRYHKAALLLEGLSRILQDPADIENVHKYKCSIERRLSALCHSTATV

Row | Structure (SMILES) | residual activity [1] [%] | residual activity [2] [%] | residual activity [3] [%] | residual activity [4] [%] | residual activity [5] [%] | residual activity [6] [%] | residual activity [7] [%] | residual activity [8] [%] | residual activity [9] [%] | residual activity [10] [%] | residual activity [11] [%] | residual activity [12] [%] | residual activity [13] [%] | residual activity [14] [%] | residual activity [15] [%] | residual activity [16] [%] | residual activity [17] [%] | residual activity [18] [%] | residual activity [19] [%] | residual activity [20] [%] | also measured
1 | Cc1c(C(=O)O)cc(-c2ccc(C3CCNCC3)cc2)c2ccc(-c3ccc(C(F)(F)F)cc3)cc12 [PPTN-NC] | 100 | 100 | 100 | 100 | 100 | 100 | 97 | 100 | 100 | 100 | 100 | 100 | 100 | 100 | 100 | 100 | 100 | 100 | 100 | 90 | residual activity [21]: 100%; residual activity [22]: 100%; residual activity [23]: 100%; residual activity [24]: 100%; residual activity [25]: 100%; residual activity [26]: 84%; residual activity [27]: 100%; residual activity [28]: 100%; residual activity [29]: 100%; residual activity [30]: 100%; residual activity [31]: 70%; residual activity [32]: 100%; residual activity [33]: 100%; residual activity [34]: 100%; residual activity [35]: 100%; residual activity [36]: 100%; residual activity [37]: 100%; residual activity [38]: 100%; inhibition [39]: 8.42%; inhibition [40]: 57.5%
2 | O=C(O)c1cc(-c2ccc(C3CCNCC3)cc2)c2ccc(-c3ccc(C(F)(F)F)cc3)cc2c1 [PPTN] | 100 | 100 | 100 | 100 | 97 | 100 | 82 | 100 | 100 | 100 | 100 | 100 | 100 | 100 | 100 | 100 | 99 | 100 | 100 | 96 | residual activity [21]: 100%; residual activity [22]: 100%; residual activity [23]: 100%; residual activity [24]: 100%; residual activity [25]: 100%; residual activity [26]: 83%; residual activity [27]: 100%; residual activity [28]: 100%; residual activity [29]: 95%; residual activity [30]: 100%; residual activity [31]: 78%; residual activity [32]: 100%; residual activity [33]: 100%; residual activity [34]: 100%; residual activity [35]: 100%; residual activity [36]: 100%; residual activity [37]: 100%; residual activity [38]: 100%; inhibition [39]: 10.4%; inhibition [40]: 65.2%
